Like-named read-outs stand apart in the source and are kept apart here.
Experiments:
Type in all cases: in vivo, male Wistar rats
[1] = Tissue distribution of radiotracer in rats; conditions: for tissue uptake at 5 min / tissue uptake at 0.5 h / tissue uptake at 1 h / tissue uptake at 3 h: rat
Experimental: Tissue Distribution Experiments
Four groups of male Wistar rats (n=4) weighing 200-350 g were used in these experiments. Each animal received, while under ether anesthesia, an intravenous injection of the radiotracer (3-5 uCi) dissolved in 0.1 mL of 50% aqueous ethanol. At 5, 30, 60 and 180 min post-injection, blood was collected from the anesthetized animal by cardiac puncture, and the animal was immediately sacrificed by cardiectomy. The organs and tissues of interest were harvested, transferred to preweighed tubes and counted in a Beckman gamma counter. The tubes were subsequently reweighed to give the weight of the corresponding tissues. Preweighed tubes containing 1 mL samples of a 1:100 dilution of the injected dose were also counted and used as reference for calculating the tissue accumulation of radioactivity. The accumulation of radiotracer was expressed as a percentage of injected dose per gram of tissue.
The animals were injected intravenously with 4.9 uCi of the radiotracer i
0.1 ml of 50% aq. EtOH.
The animals were injected with 3.7 uCi of the radiotracer in 0.1 ml of 50

[2] = Blocking experiment 2: effect of vesamicol pretreatment on radiotracer accumulation; conditions: rat, iv, 2 uCi, 30 min postradiotracer
Experimental: (§1) Two separate experiments each utilizing two groups of male Wistar rats (n=3) were performed. […]
(§2) At time = 0, animals in group 1 injected intravenously with vehicle (50%)
(§3) aq. EtOH; 0.2 ml), while animals in group 2 each received an i.v.
(§4) injection of (dl)vesamicol. HCl (1.01 umol/Kg0). After 15 min, both group
(§5) were injected with the radiotracer, allowed to recover and sacrificed 30
(§6) min postradiotracer injection.

vesamicol receptor [3] = experiment: as above; conditions: 30 min postradiotracer
Experimental: as §1, §2, §3, §4, §5, §6

[4] = Blocking experiment 1: co-injection of (dl)-vesamicol with radiotracer; conditions: rat, iv, 60 min
Experimental: (§7) Two separate experiments each utilizing two groups of male Wistar rats (n=3) were performed.
(§8) Experiment 1. Animals in Group 1 (control) each received an intravenous injection of the radiotracer (4.7 uCi in 100 uL of 50% aq. EtOH). […] At 60 min post-injection, the animals were sacrificed and the tissues were harvested as outlined above.
(§9) Animals in Group 1 received a single i.v. injection of radiotracer.
(§10) Animals in Group 2 were administered with a mixture of the radiotracer an
(§11) All animals were sacrificed a
(§12) 60 min postradiotracer injection.

vesamicol receptor [5] = experiment: as above; conditions: 60 min, iv
Experimental: as §7, §8, §9, §10, §11, §12

[6] = Group 2: (dl)vesamicol.HCl 1.01 umol/Kg pretreatment
[7] = Group 2: with (dl)vesamicol hydrochloride

Structure (SMILES): O[C@@H]1CCN(Cc2cccc([125I])c2)C[C@H]1N1CCC(c2ccccc2)CC1 (single isomer, unassigned) [(-)-[^125 I]12h, (+)- and (-)-4-hydroxy-1-(3-[I^125]iodobenzyl)-3-(4-phenyl-piperidinyl)piperidine]
- Ratio brain/blood ([1]; 5 min, iv): 4.27
- Ratio heart/blood ([1]; 5 min, iv): 6.07
- radioactivity in brain ([1]; 5 min post-injection, iv): 1.67 % of the injected dose
- Ratio brain/blood ([1]; 30 min, iv): 9.06
- Ratio heart/blood ([1]; 30 min, iv): 6.87
- Ratio brain/blood ([1]; 60 min, iv): 8.51
- Ratio heart/blood ([1]; 60 min, iv): 5.97
- Ratio brain/blood ([1]; 180 min, iv): 9.87
- Ratio heart/blood ([1]; 180 min, iv): 5.32
- brain accumulation and retention (in words) ([1]; compared with the (+)-isomer): higher accumulation and longer retention in the brain
- tissue uptake at 5 min ([1]; blood, 5 min, iv, read-out: Tissue distribution, blood): 0.22 %ID/g
- tissue uptake at 0.5 h ([1]; blood, 30 min, iv, read-out: Tissue distribution, blood): 0.11 %ID/g
- tissue uptake at 1 h ([1]; blood, 60 min, iv, read-out: Tissue distribution, blood): 0.1 %ID/g
- tissue uptake at 3 h ([1]; blood, 180 min, iv, read-out: Tissue distribution, blood): 0.1 %ID/g
- tissue uptake at 5 min ([1]; brain, 5 min, iv, read-out: Tissue distribution, brain): 0.92 %ID/g
- tissue uptake at 0.5 h ([1]; brain, 30 min, iv, read-out: Tissue distribution, brain): 0.99 %ID/g
- tissue uptake at 1 h ([1]; brain, 60 min, iv, read-out: Tissue distribution, brain): 0.83 %ID/g
- tissue uptake at 3 h ([1]; brain, 180 min, iv, read-out: Tissue distribution, brain): 0.92 %ID/g
- tissue uptake at 5 min ([1]; gonads, 5 min, iv, read-out: Tissue distribution, gonads): 0.19 %ID/g
- tissue uptake at 0.5 h ([1]; gonads, 30 min, iv, read-out: Tissue distribution, gonads): 0.23 %ID/g
- tissue uptake at 1 h ([1]; gonads, 60 min, iv, read-out: Tissue distribution, gonads): 0.17 %ID/g
- tissue uptake at 3 h ([1]; gonads, 180 min, iv, read-out: Tissue distribution, gonads): 0.2 %ID/g
- tissue uptake at 5 min ([1]; heart, 5 min, iv, read-out: Tissue distribution, heart): 1.32 %ID/g
- tissue uptake at 0.5 h ([1]; heart, 30 min, iv, read-out: Tissue distribution, heart): 0.75 %ID/g
- tissue uptake at 1 h ([1]; heart, 60 min, iv, read-out: Tissue distribution, heart): 0.58 %ID/g
- tissue uptake at 3 h ([1]; heart, 180 min, iv, read-out: Tissue distribution, heart): 0.5 %ID/g
- tissue uptake at 5 min ([1]; kidney, 5 min, iv, read-out: Tissue distribution, kidney): 3.71 %ID/g
- tissue uptake at 0.5 h ([1]; kidney, 30 min, iv, read-out: Tissue distribution, kidney): 3.53 %ID/g
- tissue uptake at 1 h ([1]; kidney, 60 min, iv, read-out: Tissue distribution, kidney): 3.13 %ID/g
- tissue uptake at 3 h ([1]; kidney, 180 min, iv, read-out: Tissue distribution, kidney): 3.27 %ID/g
- tissue uptake at 5 min ([1]; liver, 5 min, iv, read-out: Tissue distribution, liver): 2.07 %ID/g
- tissue uptake at 0.5 h ([1]; liver, 30 min, iv, read-out: Tissue distribution, liver): 2.35 %ID/g
- tissue uptake at 1 h ([1]; liver, 60 min, iv, read-out: Tissue distribution, liver): 2.63 %ID/g
- tissue uptake at 3 h ([1]; liver, 180 min, iv, read-out: Tissue distribution, liver): 2.23 %ID/g
- tissue uptake at 5 min ([1]; lung, 5 min, iv, read-out: Tissue distribution, lung): 5.9 %ID/g
- tissue uptake at 0.5 h ([1]; lung, 30 min, iv, read-out: Tissue distribution, lung): 3.21 %ID/g
- tissue uptake at 1 h ([1]; lung, 60 min, iv, read-out: Tissue distribution, lung): 2.41 %ID/g
- tissue uptake at 3 h ([1]; lung, 180 min, iv, read-out: Tissue distribution, lung): 2.01 %ID/g
- tissue uptake at 5 min ([1]; muscle, 5 min, iv, read-out: Tissue distribution, muscle): 0.46 %ID/g
- tissue uptake at 0.5 h ([1]; muscle, 30 min, iv, read-out: Tissue distribution, muscle): 0.3 %ID/g
- tissue uptake at 1 h ([1]; muscle, 60 min, iv, read-out: Tissue distribution, muscle): 0.28 %ID/g
- tissue uptake at 3 h ([1]; muscle, 180 min, iv, read-out: Tissue distribution, muscle): 0.27 %ID/g
- tissue uptake at 5 min ([1]; spleen, 5 min, iv, read-out: Tissue distribution, spleen): 1.04 %ID/g
- tissue uptake at 0.5 h ([1]; spleen, 30 min, iv, read-out: Tissue distribution, spleen): 1.24 %ID/g
- tissue uptake at 1 h ([1]; spleen, 60 min, iv, read-out: Tissue distribution, spleen): 1.17 %ID/g
- tissue uptake at 3 h ([1]; spleen, 180 min, iv, read-out: Tissue distribution, spleen): 1.28 %ID/g
- tissue uptake at 5 min ([1]; thyroid, 5 min, iv, read-out: Tissue distribution, thyroid): 2.67 %ID/g
- tissue uptake at 0.5 h ([1]; thyroid, 30 min, iv, read-out: Tissue distribution, thyroid): 3.15 %ID/g
- tissue uptake at 1 h ([1]; thyroid, 60 min, iv, read-out: Tissue distribution, thyroid): 5.87 %ID/g
- tissue uptake at 3 h ([1]; thyroid, 180 min, iv, read-out: Tissue distribution, thyroid): 11.6 %ID/g
- brain level over time (in words) ([1]; throughout the study (5 to 180 min)): remained essentially unchanged
- tissue uptake at 0.5 h ([2]; blood, Group 1: vehicle pretreatment, read-out: Accumulation after pretreatment, blood): 0.11 %ID/g
- tissue uptake at 0.5 h ([2]; blood, Group 2: (dl)vesamicol.HCl 1.01 umol/Kg pretreatment, read-out: Accumulation after pretreatment, blood): 0.12 %ID/g
- tissue uptake at 0.5 h ([2]; brain, Group 1: vehicle pretreatment, read-out: Accumulation after pretreatment, brain): 0.68 %ID/g
- tissue uptake at 0.5 h ([2]; brain, Group 2: (dl)vesamicol.HCl 1.01 umol/Kg pretreatment, read-out: Accumulation after pretreatment, brain): 0.34 %ID/g
- tissue uptake at 0.5 h ([2]; gonads, Group 1: vehicle pretreatment, read-out: Accumulation after pretreatment, gonads): 0.15 %ID/g
- tissue uptake at 0.5 h ([2]; gonads, Group 2: (dl)vesamicol.HCl 1.01 umol/Kg pretreatment, read-out: Accumulation after pretreatment, gonads): 0.16 %ID/g
- tissue uptake at 0.5 h ([2]; heart, Group 1: vehicle pretreatment, read-out: Accumulation after pretreatment, heart): 0.59 %ID/g
- tissue uptake at 0.5 h ([2]; heart, Group 2: (dl)vesamicol.HCl 1.01 umol/Kg pretreatment, read-out: Accumulation after pretreatment, heart): 0.3 %ID/g
- tissue uptake at 0.5 h ([2]; kidney, Group 1: vehicle pretreatment, read-out: Accumulation after pretreatment, kidney): 2.45 %ID/g
- tissue uptake at 0.5 h ([2]; kidney, Group 2: (dl)vesamicol.HCl 1.01 umol/Kg pretreatment, read-out: Accumulation after pretreatment, kidney): 1.13 %ID/g
- tissue uptake at 0.5 h ([2]; liver, Group 1: vehicle pretreatment, read-out: Accumulation after pretreatment, liver): 1.91 %ID/g
- tissue uptake at 0.5 h ([2]; liver, Group 2: (dl)vesamicol.HCl 1.01 umol/Kg pretreatment, read-out: Accumulation after pretreatment, liver): 1.89 %ID/g
- tissue uptake at 0.5 h ([2]; lung, Group 1: vehicle pretreatment, read-out: Accumulation after pretreatment, lung): 2.36 %ID/g
- tissue uptake at 0.5 h ([2]; lung, Group 2: (dl)vesamicol.HCl 1.01 umol/Kg pretreatment, read-out: Accumulation after pretreatment, lung): 1.59 %ID/g
- tissue uptake at 0.5 h ([2]; muscle, Group 1: vehicle pretreatment, read-out: Accumulation after pretreatment, muscle): 0.18 %ID/g
- tissue uptake at 0.5 h ([2]; muscle, Group 2: (dl)vesamicol.HCl 1.01 umol/Kg pretreatment, read-out: Accumulation after pretreatment, muscle): 0.16 %ID/g
- tissue uptake at 0.5 h ([2]; spleen, Group 1: vehicle pretreatment, read-out: Accumulation after pretreatment, spleen): 1.05 %ID/g
- tissue uptake at 0.5 h ([2]; spleen, Group 2: (dl)vesamicol.HCl 1.01 umol/Kg pretreatment, read-out: Accumulation after pretreatment, spleen): 0.8 %ID/g
- tissue uptake at 0.5 h ([2]; thyroid, Group 1: vehicle pretreatment, read-out: Accumulation after pretreatment, thyroid): 2.62 %ID/g
- tissue uptake at 0.5 h ([2]; thyroid, Group 2: (dl)vesamicol.HCl 1.01 umol/Kg pretreatment, read-out: Accumulation after pretreatment, thyroid): 4.56 %ID/g
- Accumulation after pretreatment, ratio brain/blood (vesamicol receptor [3]; Group 1: vehicle pretreatment): 6.45
- Accumulation after pretreatment, ratio heart/blood (vesamicol receptor [3]; Group 1: vehicle pretreatment): 5.59
- Accumulation after pretreatment, ratio brain/blood (vesamicol receptor [3]; [6]): 2.75
- Accumulation after pretreatment, ratio heart/blood (vesamicol receptor [3]; [6]): 2.40
- tissue uptake at 1 h ([4]; blood, Group 1: radiotracer alone, read-out: Blocking study, blood): 0.09 %ID/g
- tissue uptake at 1 h ([4]; blood, Group 2: with (dl)vesamicol hydrochloride, read-out: Blocking study, blood): 0.09 %ID/g
- tissue uptake at 1 h ([4]; brain, Group 1: radiotracer alone, read-out: Blocking study, brain): 0.97 %ID/g
- tissue uptake at 1 h ([4]; brain, Group 2: with (dl)vesamicol hydrochloride, read-out: Blocking study, brain): 0.29 %ID/g
- tissue uptake at 1 h ([4]; gonads, Group 1: radiotracer alone, read-out: Blocking study, gonads): 0.21 %ID/g
- tissue uptake at 1 h ([4]; gonads, Group 2: with (dl)vesamicol hydrochloride, read-out: Blocking study, gonads): 0.22 %ID/g
- tissue uptake at 1 h ([4]; heart, Group 1: radiotracer alone, read-out: Blocking study, heart): 0.5 %ID/g
- tissue uptake at 1 h ([4]; heart, Group 2: with (dl)vesamicol hydrochloride, read-out: Blocking study, heart): 0.16 %ID/g
- tissue uptake at 1 h ([4]; kidney, Group 1: radiotracer alone, read-out: Blocking study, kidney): 3.11 %ID/g
- tissue uptake at 1 h ([4]; kidney, Group 2: with (dl)vesamicol hydrochloride, read-out: Blocking study, kidney): 0.89 %ID/g
- tissue uptake at 1 h ([4]; liver, Group 1: radiotracer alone, read-out: Blocking study, liver): 2.45 %ID/g
- tissue uptake at 1 h ([4]; liver, Group 2: with (dl)vesamicol hydrochloride, read-out: Blocking study, liver): 2.31 %ID/g
- tissue uptake at 1 h ([4]; lung, Group 1: radiotracer alone, read-out: Blocking study, lung): 1.96 %ID/g
- tissue uptake at 1 h ([4]; lung, Group 2: with (dl)vesamicol hydrochloride, read-out: Blocking study, lung): 0.76 %ID/g
- tissue uptake at 1 h ([4]; muscle, Group 1: radiotracer alone, read-out: Blocking study, muscle): 0.26 %ID/g
- tissue uptake at 1 h ([4]; muscle, Group 2: with (dl)vesamicol hydrochloride, read-out: Blocking study, muscle): 0.12 %ID/g
- tissue uptake at 1 h ([4]; spleen, Group 1: radiotracer alone, read-out: Blocking study, spleen): 1.1 %ID/g
- tissue uptake at 1 h ([4]; spleen, Group 2: with (dl)vesamicol hydrochloride, read-out: Blocking study, spleen): 0.58 %ID/g
- tissue uptake at 1 h ([4]; thyroid, Group 1: radiotracer alone, read-out: Blocking study, thyroid): 5.58 %ID/g
- tissue uptake at 1 h ([4]; thyroid, Group 2: with (dl)vesamicol hydrochloride, read-out: Blocking study, thyroid): 6.55 %ID/g
- Blocking study, ratio brain/blood (vesamicol receptor [5]; Group 1: radiotracer alone): 10.44
- Blocking study, ratio heart/blood (vesamicol receptor [5]; Group 1: radiotracer alone): 5.37
- Blocking study, ratio brain/blood (vesamicol receptor [5]; [7]): 3.30
- Blocking study, ratio heart/blood (vesamicol receptor [5]; [7]): 1.87

From patent US5876694A, “Azavesamicols” (priority 1997, dated 1999)
